Measurements reported in patent US10618903B2, “Heteroaryl substituted aminopyridine compounds” (BRISTOL-MYERS SQUIBB COMPANY, priority 2015, dated 2020).

What was measured:
IRAK4 = IRAK4 (Homo sapiens (Human), UniProt Q9NWZ3); experiment: IRAK4 Inhibition Assay; assay type: biochemical; conditions: ATP 500 μM; IRAK4 0.6 nM
How it was run: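 Enzyme 0.6 nM, ATP 500 μM, FL-peptide 1.5 μM, DMSO 1.6%; HEPES pH 7.2/MgCl2/Brij 35/DTT buffer. RT, 60 min, EDTA stop. Mobility-shift product/substrate ratio; % inhib vs no-enzyme and vehicle controls.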

[1] = tested on: IL-6 levels in human whole blood stimulated with a TLR2 agonist; experiment: IRAK4 Whole Blood Assay (lipoteichoic acid/TLR2-stimulated IL-6); assay type: cell-based; conditions: lipoteichoic acid 10 μg/mL, IL-6 readout
Protocol: Human whole blood containing the anti-coagulant ACD-A was plated in 384-well plate (25 μL/well) and incubated with compounds for 60 minutes at 37° C. in a 5% CO2 incubator. The blood was stimulated with a TLR2 agonist, 10 μg/mL final concentration of lipoteichoic acid (Invivogen, San Diego, Calif.) in 25 μL RPMI (Gibco) for 5 hours in a 5% CO2 incubator. At the end of the incubation, plates were centrifuged at 2300 rpm for 5 minutes. Supernatants were harvested and analyzed for IL-6 levels by Flow Cytometry beads assay (BD Biosciences, San Jose, Calif.).

Chain of IRAK4 (Q9NWZ3 whole entry): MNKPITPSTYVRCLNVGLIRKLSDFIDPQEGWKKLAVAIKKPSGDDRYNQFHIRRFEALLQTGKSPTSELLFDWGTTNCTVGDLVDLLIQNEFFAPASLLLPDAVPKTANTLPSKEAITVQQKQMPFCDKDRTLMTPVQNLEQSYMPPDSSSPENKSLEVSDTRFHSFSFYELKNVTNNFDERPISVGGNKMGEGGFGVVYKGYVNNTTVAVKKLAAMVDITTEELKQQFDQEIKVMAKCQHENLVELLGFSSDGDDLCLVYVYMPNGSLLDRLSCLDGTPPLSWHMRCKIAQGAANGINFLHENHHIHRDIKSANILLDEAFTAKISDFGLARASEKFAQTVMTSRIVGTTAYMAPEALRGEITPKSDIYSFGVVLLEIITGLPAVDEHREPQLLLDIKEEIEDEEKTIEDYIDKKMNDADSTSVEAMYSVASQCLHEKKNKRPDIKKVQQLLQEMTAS

| Structure (SMILES) | IC50 (IRAK4) [nM] | EC50 ([1]; Homo sapiens) [nM] | EC50 [1] [nM] |
| --- | --- | --- | --- |
| CC(C)(O)[C@H](F)CNC(=O)c1cnc(-c2cnc3cc(C#N)cnn23)cc1NC1CC1 [Example 182, (R)-6-(7-cyanoimidazo[1,2-b]pyridazin-3-yl)-4-(cyclopropylamino)-N-(2-fluoro-3-hydroxy-3-methylbutyl)nicotinamide] | 2 | 620 |  |
| CC(C)Nc1cc(-c2cnc3cc(C#N)cnn23)ncc1C(=O)NCC(F)C1CC(C)OC(C)C1 (single isomer, unassigned) [Example 176, 6-(7-cyanoimidazo[1,2-b]pyridazin-3-yl)-N-(2-(2,6-dimethyltetrahydro-2H-pyran-4-yl)-2-fluoroethyl)-4-(isopropylamino)nicotinamide] | 3 | 540 |  |
| CC(C)(O)[C@H](F)CNC(=O)c1cnc(-c2cnn3cc(C#N)cnc23)cc1N[C@@H]1CCN(c2ncccn2)C1 [Example 118, 6-(6-cyanopyrazolo[1,5-a]pyrimidin-3-yl)-N—((R)-2-fluoro-3-hydroxy-3-methylbutyl)-4-(((R)-1-(pyrimidin-2-yl)pyrrolidin-3-yl)amino)nicotinamide] | 9 | 710 |  |
| CC(C)(O)[C@H](F)CNC(=O)c1cnc(-c2cnc3cc(C(F)F)cnn23)cc1NC1COC1 [Example 222, (R)-6-(7-(difluoromethyl)imidazo[1,2-b]pyridazin-3-yl)-N-(2-fluoro-3-hydroxy-3-methylbutyl)-4-(oxetan-3-ylamino)nicotinamide] | 7 | 630 |  |
| CC(C)Nc1cc(-c2cnn3cc(C#N)cnc23)ncc1C(=O)NC[C@@H](F)C(C)(C)OC(F)F [Example 170, (R)-6-(6-cyanopyrazolo[1,5-a]pyrimidin-3-yl)-N-(3-(difluoromethoxy)-2-fluoro-3-methylbutyl)-4-(isopropylamino)nicotinamide] | 5 | 820 |  |
| CC(C)(O)[C@H](F)CNC(=O)c1cnc(-c2cnc3cc(Cl)cnn23)cc1NC1CC(F)(F)C1 [Example 206, (R)-6-(7-chioroimidazo[1,2-b]pyridazin-3-yl)-4-((3,3-difluorocyclobutyl)amino)-N-(2-fluoro-3-hydroxy-3-methylbutyl)nicotinamide] | 4 | 820 |  |
| C[C@H](CO)Nc1cc(-c2cnn3cc(C#N)cnc23)ncc1C(=O)NC[C@@H](F)C(C)(C)O [Example 98, 6-(6-cyanopyrazolo[1,5-a]pyrimidin-3-yl)-N—((R)-2-fluoro-3-hydroxy-3-methylbutyl)-4-(((R)-1-hydroxypropan-2-yl)amino)nicotinamide] | 6 | 860 |  |
| CC(C)(O)[C@H](F)CNC(=O)c1cnc(-c2cnn3cc(Cl)cnc23)cc1Nc1cccc(C#N)c1F [Example 35, (R)-6-(6-chloropyrazolo[1,5-a]pyrimidin-3-yl)-4-((3-cyano-2-fluorophenyl)amino)-N-(2-fluoro-3-hydroxy-3-methylbutyl)nicotinamide] | 2 | 2440 |  |
| CC(C)Nc1cc(-c2cnn3cc(Cl)cnc23)ncc1C(=O)NCCCS(C)(=O)=O [Example 168, 6-(6-chloropyrazolo[1,5-a]pyrimidin-3-yl)-4-(isopropylamino)-N-(3-(methylsulfonyl)propyl)nicotinamide] | 16 | 760 |  |
| CC(C)Nc1cc(-c2cnc3cc(C#N)cnn23)ncc1C(=O)NCC(F)(F)C(C)(C)O [Example 173, 6-(7-cyanoimidazo[1,2-b]pyridazin-3-yl)-N-(2,2-difluoro-3-hydroxy-3-methylbutyl)-4-(isopropylamino)nicotinamide] | 6 | 830 |  |
| C[C@@H](CF)Nc1cc(-c2cnc3cc(C#N)cnn23)ncc1C(=O)NC[C@@H](F)C(C)(C)O [Example 200, 6-(7-cyanoimidazo[1,2-b]pyridazin-3-yl)-N—((R)-2-fluoro-3-hydroxy-3-methylbutyl)-4-(((S)-1-fluoropropan-2-yl)amino)nicotinamide] | 2 | 430 |  |
| CC(C)(O)[C@H](F)CNC(=O)c1cnc(-c2cnn3cc(C#N)cnc23)cc1NC1CCCOC1 (single isomer, unassigned) [Example 94] | 10 |  | 370 |
| COC(C)(C)[C@H]1CC[C@H](NC(=O)c2cnc(-c3cnc4cc(C#N)cnn34)cc2NC(C)C)CC1 [Example 174, 6-(7-cyanoimidazo[1,2-b]pyridazin-3-yl)-4-(isopropylamino)-N-((1r,4r)-4-(2-methoxypropan-2-yl)cyclohexyl)nicotinamide] | 4 | 710 |  |
| CC(C)(F)Cn1cc(Nc2cc(-c3cnc4cc(C#N)cnn34)ncc2C(=O)NC[C@@H](F)C(C)(C)F)cn1 [Example 282, (R)-6-(7-cyanoimidazo[1,2-b]pyridazin-3-yl)-N-(2,3-difluoro-3-methylbutyl)-4-((1-(2-fluoro-2-methylpropyl)-1H-pyrazol-4-yl)amino)nicotinamide] | 2 | 710 |  |
| CC(C)Nc1cc(-c2cnn3cc(Cl)cnc23)ncc1C(=O)NC[C@@H](F)C(C)(C)OC(F)F [Example 157, (R)-6-(6-chloropyrazolo[1,5-a]pyrimidin-3-yl)-N-(3-(difluoromethoxy)-2-fluoro-3-methylbutyl)-4-(isopropylamino)nicotinamide] | 3 | 930 |  |
| CC(C)(O)[C@H](F)CNC(=O)c1cnc(-c2cnn3cc(C#N)cnc23)cc1NC1CCCOC1 (single isomer, unassigned) [Example 95] | 6 |  | 1160 |
| CC(F)(F)Cn1cc(Nc2cc(-c3cnc4cc(C#N)cnn34)ncc2C(=O)NC[C@@H](F)C(C)(C)F)cn1 [Example 269, (R)-6-(7-cyanoimidazo[1,2-b]pyridazin-3-yl)-N-(2,3-difluoro-3-methylbutyl)-4-((1-(2,2-difluoropropyl)-1H-pyrazol-4-yl)amino)nicotinamide] | 2 | 560 |  |

Next, values leading:

| IC50 (IRAK4) [nM] | EC50 ([1]; Homo sapiens) [nM] | EC50 [1] [nM] | Structure (SMILES) |
| --- | --- | --- | --- |
| 3 | 930 |  | O=C(N[C@H]1CC[C@H](O)CC1)c1cnc(-c2cnn3cc(Cl)cnc23)cc1Nc1cnn(CC(F)F)c1 [Example 252, 6-(6-chloropyrazolo[1,5-a]pyrimidin-3-yl)-4-((1-(2,2-difluoroethyl)-1H-pyrazol-4-yl)amino)-N-((1r,4r)-4-hydroxycyclohexyl) nicotinamide] |
| 6 | 840 |  | CC1(Nc2cc(-c3cnn4cc(Cl)cnc34)ncc2C(=O)NC[C@@H](F)C(C)(C)O)CC1 [Example 80, (R)-6-(6-chloropyrazolo[1,5-a]pyrimidin-3-yl)-N-(2-fluoro-3-hydroxy-3-methylbutyl)-4-((1-methylcyclopropyl)amino)nicotinamide] |
| 7 | 1050 |  | CNC(=O)[C@H]1CC[C@H](NC(=O)c2cnc(-c3cnn4cc(Cl)cnc34)cc2NC(C)C)CC1 [Example 27, 6-(6-chloropyrazolo[1,5-a]pyrimidin-3-yl)-4-(isopropylamino)-N-((1r,4r)-4-(methylcarbamoyl)cyclohexyl) nicotinamide] |
| 7 | 2530 |  | CC(C)Nc1cc(-c2cnn3cc(Cl)cnc23)ncc1C(=O)NCCC(C)(C)F [Example 20, 6-(6-chloropyrazolo[1,5-a]pyrimidin-3-yl)-N-(3-fluoro-3-methylbutyl)-4-(isopropylamino)nicotinamide] |
| 7 | 350 |  | O=C(N[C@H]1CC[C@H](C(=O)NC2CC2)CC1)c1cnc(-c2cnn3cc(Cl)cnc23)cc1NC1COC1 [Example 41, 6-(6-chloropyrazolo[1,5-a]pyrimidin-3-yl)-N-((1r,4r)-4-(cyclopropylcarbamoyl)cyclohexyl)-4-(oxetan-3-ylamino)nicotinamide] |
| 2 | 1460 |  | CC(C)(O)[C@H](F)CNC(=O)c1cnc(-c2cnn3cc(Cl)cnc23)cc1NC12CC(C1)C2 [Example 75, (R)-4-(bicyclo[1.1.1]pentan-1-ylamino)-6-(6-chloropyrazolo[1,5-a]pyrimidin-3-yl)-N-(2-fluoro-3-hydroxy-3-methylbutyl)nicotinamide] |
| 9 | 800 |  | CC(C)(O)[C@H]1CC[C@H](NC(=O)c2cnc(-c3cnn4cc(C#N)cnc34)cc2NC2COC2)CC1 [Example 120, 6-(6-cyanopyrazolo[1,5-a]pyrimidin-3-yl)-N-((1r,4r)-4-(2-hydroxypropan-2-yl)cyclohexyl)-4-(oxetan-3-ylamino)nicotinamide] |
| 3 | 790 |  | Cn1cc(Nc2cc(-c3cnn4cc(Cl)cnc34)ncc2C(=O)N[C@H]2CC[C@H](C(C)(C)O)CC2)cn1 [Example 256, 6-(6-chloropyrazolo[1,5-a]pyrimidin-3-yl)-N-((1r,4r)-4-(2-hydroxypropan-2-yl)cyclohexyl)-4-((1-methyl-1H-pyrazol-4-yl)amino)nicotinamide] |
| 5 | 660 |  | CCO[C@H]1CC[C@H](NC(=O)c2cnc(-c3cnn4cc(Cl)cnc34)cc2NC(C)C)CC1 [Example 166, 6-(6-chloropyrazolo[1,5-a]pyrimidin-3-yl)-N-((1r,4r)-4-ethoxycyclohexyl)-4-(isopropylamino)nicotinamide] |
| 3 | 540 |  | CC(C)(O)[C@H](F)CNC(=O)c1cnc(-c2cnn3cc(C#N)cnc23)cc1Nc1cnn(C(F)F)c1 [Example 234, (R)-6-(6-cyanopyrazolo[1,5-a]pyrimidin-3-yl)-4-((1-(difluoromethyl)-1H-pyrazol-4-yl)amino)-N-(2-fluoro-3-hydroxy-3-methylbutyl)nicotinamide] |
